Assay results reported in patent US6866837B2, “Radiolabeled peptides for the diagnosis and treatment of breast and prostate tumors and metastases of such tumors” (Mallinckrodt Inc., priority 1998, dated 2005).
Where two headings read alike, the source gives them in different places.

Key:
[1] = system: bombesin receptor positive prolactinoma 7315b; conditions: female Lewis rats; visualized by scintigraphy
[2] = rats; cited from earlier work
[3] = for 2 h after labeling with IN-111 up to 100 Mbq per jj. g; HPLC
in vivo = conditions: rat, total radioactivity
7315b cells = conditions: read-out: agonistic activities on bombesin stimulated prolactin secretion, IC50
[4] = rats
[5] = Dynamic gamma camera: clearance and excretion of radioactivity; conditions: rat, in vivo
bombesin receptors = assay: Receptor autoradiography of human tumor tissue sections with the radioligand; assay type: binding
Procedure: Various tumor tissue samples, including surrounding tissue, were harvested from human patients and/or human cadavers, and frozen. The samples were cut on a cryostat, mounted on microscope slides, and then stored at −20° C. for […] improve adhesion of the tissue to the slide. The slide-mounted tissue sections were allowed to reach room temperature and preincubated in 50 mmol/1 Tris-HCl, 130 mmol/1 NaCl, 4.7 mmol/1 KCl, 5 mmol/I MgCl2, 1 mmol/l ethylene glycol-bi (b-aminoethylether)-N, N, N′, N′-tetraacetic acid, and 0.5% bovine serum albumin, pH 7.4 (preincubation solution), for 30 min. at 25° C. The slides are then incubated in a solution containing the same medium as the preincubation solution except the bovine serum albumin is omitted, and the following compounds are added: 20000 dpm/100 ml of the radioligand of Example 1, 0.025% bacitracin, 1 mmol/l dithiothreitol, 2 mg/ml chymostatin, and 4 mg/ml leupeptin, pH=6.5. The slides are incubated at room temperature with the radioligand for 150 min., as described by Mantyh et al. (Gasteroenterology, 1994, 107, 1019-30). After the incubation, the slides are rinsed with four washes of 30 sec each in ice-cold preincubation solution, pH 7.4, dipped in ice-cold water, and then quickly dried in a refrigerator under a stream of cold air. The sections are subsequently exposed to a ^3H Ultrofilm for 1 week, to detect the precise location of the radioactivity.
The films were evaluated to determine the ability to distinguish the tumor from the surrounding tissue.

[6] = Breat Cancer Metastases, 5 samples
[7] = Non Small Cell Lung Carcinoma, 34 samples
[8] = Prostate Cancer Metastases, 5 samples
[9] = Small Cell Lung Carcinoma, 10 samples
[10] = Uterus Leomyosarcoma Tumor, 3 samples
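Throughout, for Tissue RA, Pancreas: radiolabelled ligand targeting bombesin receptors, given by intravenous injection at varied injected mass.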
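Throughout, for ratio vs. blood, Adrenal: radiolabelled ligand targeting bombesin receptors, given by intravenous injection at varied injected mass.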
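Throughout, for ratio vs. blood, Colon: radiolabelled ligand targeting bombesin receptors, given by intravenous injection at varied injected mass.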
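Throughout, for uptake in pancreas and tissues of the GI tract: radiolabelled ligand targeting bombesin receptors, given by intravenous injection at varied injected mass.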

## CSCC[C@H](NC(=O)[C@H](CC(C)C)NC(=O)[C@H](Cc1c[nH]cn1)NC(=O)CNC(=O)[C@@H](NC(=O)[C@H](C)NC(=O)[C@H](Cc1c[nH]c2ccccc12)NC(=O)[C@H](CCC(N)=O)NC(=O)[C@H](CC(N)=O)NC(=O)CNC(=O)[C@H](Cc1ccc(O)cc1)NC(=O)[C@H](CCCNC(=N)N)NC(=O)[C@H](CCC(N)=O)NC(=O)[C@@H]1CCCN1C(=O)CN(CCN(CCN(CC(=O)O)CC(=O)O)CC(=O)O)CC(=O)O)C(C)C)C(N)=O [[^111In-DTPA^0, Pro^1, Tyr^4] bombesin, metal not drawn]
[1]
  uptake in bombesin receptor positive prolactinoma 7315b: Specific uptake
[2]
  uptake in the pancreas and tissues of the GI-tract: high and specific uptake
[3]
  radiochemically stable: > 95%
In vivo; adrenal, 0.01 ug
  tissue uptake at 48 h: 0.029 %ID/g
In vivo; adrenal, 0.025 ug
  tissue uptake at 48 h: 0.03 %ID/g
In vivo; adrenal, 0.1 ug
  tissue uptake at 48 h: 0.022 %ID/g
In vivo; adrenal, 0.5 ug
  tissue uptake at 48 h: 0.014 %ID/g
In vivo; blood, 0.01 ug
  tissue uptake at 48 h: 0.0009 %ID/g
In vivo; blood, 0.025 ug
  tissue uptake at 48 h: 0.001 %ID/g
In vivo; blood, 0.5 ug
  tissue uptake at 48 h: 0.0008 %ID/g
In vivo; blood, iv, 0.1 ug
  tissue uptake at 48 h: 0.0009 %ID/g
In vivo; bombesin receptor positive tissues
  tissue uptake at 48 h: 0.025 %ID/g
In vivo; colon, 0.01 ug
  tissue uptake at 48 h: 0.072 %ID/g
In vivo; colon, 0.025 ug
  tissue uptake at 48 h: 0.063 %ID/g
In vivo; colon, 0.1 ug
  tissue uptake at 48 h: 0.061 %ID/g
In vivo; colon, 0.5 ug
  tissue uptake at 48 h: 0.036 %ID/g
In vivo; pancreas, 0.025 ug
  tissue uptake at 48 h: 1.2 %ID/g
In vivo; pancreas, 0.1 ug
  tissue uptake at 48 h: 0.72 %ID/g
In vivo; pancreas, 0.5 ug
  tissue uptake at 48 h: 0.43 %ID/g
In vivo; stomach, 0.01 ug
  tissue uptake at 48 h: 0.035 %ID/g
In vivo; stomach, 0.025 ug
  tissue uptake at 48 h: 0.065 %ID/g
In vivo; stomach, 0.1 ug
  tissue uptake at 48 h: 0.042 %ID/g
In vivo; stomach, 0.5 ug
  tissue uptake at 48 h: 0.036 %ID/g
7315b cells
  IC50: 8 nM
[4]
  uptake in pancreas and tissues of the GI tract: high and specific uptake
[4]; 48 h after injection, 0.01 μg
  Tissue RA, Pancreas: 1.0 % ID/g
  ratio vs. blood, Adrenal: 34
  ratio vs. blood, Colon: 85
  ratio vs. blood, Pancreas: 1210
  ratio vs. blood, Stomach: 40
[4]; 48 h after injection, 0.025 μg
  ratio vs. blood, Adrenal: 30
  ratio vs. blood, Colon: 64
  ratio vs. blood, Pancreas: 1217
  ratio vs. blood, Stomach: 64
[4]; 48 h after injection, 0.1 μg
  ratio vs. blood, Adrenal: 26
  ratio vs. blood, Colon: 73
  ratio vs. blood, Pancreas: 856
  ratio vs. blood, Stomach: 50
[4]; 48 h after injection, 0.5 μg
  ratio vs. blood, Adrenal: 18
  ratio vs. blood, Colon: 52
  ratio vs. blood, Pancreas: 574
  ratio vs. blood, Stomach: 50
Dynamic gamma camera
  clearance of radioactivity from the blood compartment: rapid clearance
In 1 h
  urinary excretion: 35%
In 20 h
  urinary excretion: 70%
[5]
  total body retention: 10%

## pGlu-Gln-Arg-Tyr-Gly-Asn-Gln-Trp-Ala-Val-Gly-His-Leu-Met-NH2 [[^125I-Tyr^4] bombesin]
Bombesin receptors; Breast Cancer, 95 samples
  % Positive: 69%
  Number Positive: 66
Bombesin receptors; [6]
  % Positive: 100%
  Number Positive: 5
Bombesin receptors; Colon Cancer, 18 samples
  % Positive: 6%
  Number Positive: 1
Bombesin receptors; Gastric Cancer, 27 samples
  % Positive: 0%
  Number Positive: 0
Bombesin receptors; Gastrinomas, 4 samples
  % Positive: 100%
  Number Positive: 4
Bombesin receptors; Glioblastomas, 4 samples
  % Positive: 100%
  Number Positive: 4
Bombesin receptors; Melanomas, 8 samples
  % Positive: 12%
  Number Positive: 1
Bombesin receptors; [7]
  % Positive: 0%
  Number Positive: 0
Bombesin receptors; Pancreatic Cancer, 28 samples
  % Positive: 0%
  Number Positive: 0
Bombesin receptors; [8]
  % Positive: 100%
  Number Positive: 5
Bombesin receptors; Prostate Cancer, 28 samples
  % Positive: 100%
  Number Positive: 28
Bombesin receptors; [9]
  % Positive: 20%
  Number Positive: 2
Bombesin receptors; [10]
  % Positive: 33%
  Number Positive: 1
